Results as given in patent US20250129084A1, “Compounds” (GlaxoSmithKline Intellectual Property Development Limited, priority 2022, published 2025).
Converted amounts (≈) assume the structure as drawn. Like-named read-outs stand apart in the source and are kept apart here.

What was measured:
[1] = system: Mycobacterium tuberculosis H37Rv; test: Acute Mycobacterium tuberculosis in vivo assay
[2] = system: Mycobacterium tuberculosis H37Rv; test: Mycobacterium tuberculosis in vitro H37Rv extracellular inhibition assay (OD readout); format: cell-based; details: 192 h, read-out: Assay 2 MIC (μM) extracellular
[3] = system: Mycobacterium tuberculosis H37Rv in human macrophages THP-1; test: Mycobacterium tuberculosis in vitro H37Rv in human macrophages THP-1 inhibition assay (intracellular assay); format: cell-based; details: read-out: Assay 3 MIC (μM) intracellular
Description: Assay 3 Mycobacterium tuberculosis In Vitro H37Rv in Human Macrophages THP-1 Inhibition Assay
This ex-vivo assay may represent physiological conditions that mimic disease and take into consideration the favourable contribution of host cells.

[4] = target: T1, Mycobacterium tuberculosis lysine tRNA synthetase (MtKRS) (Mycobacterium tuberculosis, UniProt P9WFU9); test: biochemical; details: 40 nM MtKRS, 30 μM ATP, 12 μM L-lysine, 20 hours incubation; read-out: Assay 1 Mtb KRS
T1 construct: made in house; host or cells: E. coli BL21 (DE3)
T1 sequence (P9WFU9 whole entry): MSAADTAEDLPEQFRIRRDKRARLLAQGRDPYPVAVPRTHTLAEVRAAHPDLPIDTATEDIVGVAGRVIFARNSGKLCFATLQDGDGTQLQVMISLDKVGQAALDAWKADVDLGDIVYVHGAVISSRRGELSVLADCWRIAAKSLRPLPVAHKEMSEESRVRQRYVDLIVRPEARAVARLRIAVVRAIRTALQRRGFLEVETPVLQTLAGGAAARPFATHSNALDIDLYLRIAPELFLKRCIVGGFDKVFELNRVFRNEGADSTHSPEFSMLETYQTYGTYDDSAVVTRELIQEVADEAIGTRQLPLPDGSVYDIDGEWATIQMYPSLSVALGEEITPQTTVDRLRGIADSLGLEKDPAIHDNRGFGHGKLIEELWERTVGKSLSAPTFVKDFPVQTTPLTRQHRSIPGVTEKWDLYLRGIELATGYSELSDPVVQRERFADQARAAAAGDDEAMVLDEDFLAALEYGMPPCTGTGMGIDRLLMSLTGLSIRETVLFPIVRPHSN

[5] = H37Rv in THP-1 human macrophages

For `CCOc1nc(N)nc2c1C(=O)N([C@@H]1CCCCC[C@@H]1O)C2` [Example 46, 2-Amino-4-ethoxy-6-((1R,2S)-2-hydroxycycloheptyl)-6,7-dihydro-5H-pyrrolo[3,4-d]pyrimidin-5-one], the “Log PCR reduction in acute efficacy study @ 50 mg/kg” value ([1]; C57BL/6 mice, 50 mg/kg oral once a day, day 1 to day 8) was 3, the “Assay 4 ED99” value ([1]; female C57BL/6 mice, intratracheal infection, oral once a day day 1 to day 8, lungs harvested day 9) was 7 mg/kg and the MIC ([2]; H37RV) was 0.5 µM (≈ 0.153 µg/mL). The MIC ([3]; H37RV) was 1.1 µM (≈ 0.337 µg/mL).

Work on `CNc1nc(N)nc2c1C(=O)N([C@H]1[C@@H](O)CCCCC1(F)F)C2` [Example 51, 2-Amino-6-((1S,7S)-2,2-difluoro-7-hydroxycycloheptyl)-4-(methylamino)-6,7-dihydro-5H-pyrrolo[3,4-d]pyrimidin-5-one] yielded an MIC ([2]; H37RV) of 1 µM (≈ 0.327 µg/mL), an IC50 [4] of 200 nM and an MIC ([3]; H37RV) of 0.3 µM (≈ 0.0982 µg/mL).

`Nc1nc2c(c(-n3cccn3)n1)C(=O)N([C@H]1[C@@H](O)CCCCC1(F)F)C2` [Example 52, 2-Amino-6-((1S,7S)-2,2-difluoro-7-hydroxycycloheptyl)-4-(1H-pyrazol-1-yl)-6,7-dihydro-5H-pyrrolo[3,4-d]pyrimidin-5-one] was tested, and the “CFU reduction @12 mg/kg (acute efficacy study)” value ([1]; C57BL/6 mice, 12 mg/kg oral once a day, day 1 to day 8) was 0.4 (CFU reduction, the MIC ([2]; H37Rv, 7H9 medium, 8 days, Abs 590 nm) was 0.1 µM (≈ 0.0364 µg/mL) and the IC50 [4] was 80 nM. For the same compound, the MIC [3, 5] was 0.06 µM (≈ 0.0219 µg/mL).

In the case of `CCOc1cnn(-c2nc(N)nc3c2C(=O)N([C@@H]2CCCC[C@@H]2O)C3)c1` [Example 53, 2-amino-4-(4-ethoxy-1H-pyrazol-1-yl)-6-((1R,2S)-2-hydroxycyclohexyl)-6,7-dihydro-5H-pyrrolo[3,4-d]pyrimidin-5-one], the IC50 [4] is reported as 300 nM and the MIC [3, 5] is reported as 0.3 µM (≈ 0.108 µg/mL).

With `CCOc1cnn(-c2nc(N)nc3c2C(=O)N([C@H]2CCCCC2(F)F)C3)c1` [Example 54, (S)-2-amino-6-(2,2-difluorocyclohexyl)-4-(4-ethoxy-1H-pyrazol-1-yl)-6,7-dihydro-5H-pyrrolo[3,4-d]pyrimidin-5-one] the IC50 [4] was 200 nM.
